Article PMC4597882 (Investigational new drugs, 2009)

Target: human TopoII (TopoIIα) (Homo sapiens, UniProt P11388)
Assay: kinetoplast DNA decatenation assay
Assay type: biochemical

Sequence of human TopoII (TopoIIα) (P11388 whole entry): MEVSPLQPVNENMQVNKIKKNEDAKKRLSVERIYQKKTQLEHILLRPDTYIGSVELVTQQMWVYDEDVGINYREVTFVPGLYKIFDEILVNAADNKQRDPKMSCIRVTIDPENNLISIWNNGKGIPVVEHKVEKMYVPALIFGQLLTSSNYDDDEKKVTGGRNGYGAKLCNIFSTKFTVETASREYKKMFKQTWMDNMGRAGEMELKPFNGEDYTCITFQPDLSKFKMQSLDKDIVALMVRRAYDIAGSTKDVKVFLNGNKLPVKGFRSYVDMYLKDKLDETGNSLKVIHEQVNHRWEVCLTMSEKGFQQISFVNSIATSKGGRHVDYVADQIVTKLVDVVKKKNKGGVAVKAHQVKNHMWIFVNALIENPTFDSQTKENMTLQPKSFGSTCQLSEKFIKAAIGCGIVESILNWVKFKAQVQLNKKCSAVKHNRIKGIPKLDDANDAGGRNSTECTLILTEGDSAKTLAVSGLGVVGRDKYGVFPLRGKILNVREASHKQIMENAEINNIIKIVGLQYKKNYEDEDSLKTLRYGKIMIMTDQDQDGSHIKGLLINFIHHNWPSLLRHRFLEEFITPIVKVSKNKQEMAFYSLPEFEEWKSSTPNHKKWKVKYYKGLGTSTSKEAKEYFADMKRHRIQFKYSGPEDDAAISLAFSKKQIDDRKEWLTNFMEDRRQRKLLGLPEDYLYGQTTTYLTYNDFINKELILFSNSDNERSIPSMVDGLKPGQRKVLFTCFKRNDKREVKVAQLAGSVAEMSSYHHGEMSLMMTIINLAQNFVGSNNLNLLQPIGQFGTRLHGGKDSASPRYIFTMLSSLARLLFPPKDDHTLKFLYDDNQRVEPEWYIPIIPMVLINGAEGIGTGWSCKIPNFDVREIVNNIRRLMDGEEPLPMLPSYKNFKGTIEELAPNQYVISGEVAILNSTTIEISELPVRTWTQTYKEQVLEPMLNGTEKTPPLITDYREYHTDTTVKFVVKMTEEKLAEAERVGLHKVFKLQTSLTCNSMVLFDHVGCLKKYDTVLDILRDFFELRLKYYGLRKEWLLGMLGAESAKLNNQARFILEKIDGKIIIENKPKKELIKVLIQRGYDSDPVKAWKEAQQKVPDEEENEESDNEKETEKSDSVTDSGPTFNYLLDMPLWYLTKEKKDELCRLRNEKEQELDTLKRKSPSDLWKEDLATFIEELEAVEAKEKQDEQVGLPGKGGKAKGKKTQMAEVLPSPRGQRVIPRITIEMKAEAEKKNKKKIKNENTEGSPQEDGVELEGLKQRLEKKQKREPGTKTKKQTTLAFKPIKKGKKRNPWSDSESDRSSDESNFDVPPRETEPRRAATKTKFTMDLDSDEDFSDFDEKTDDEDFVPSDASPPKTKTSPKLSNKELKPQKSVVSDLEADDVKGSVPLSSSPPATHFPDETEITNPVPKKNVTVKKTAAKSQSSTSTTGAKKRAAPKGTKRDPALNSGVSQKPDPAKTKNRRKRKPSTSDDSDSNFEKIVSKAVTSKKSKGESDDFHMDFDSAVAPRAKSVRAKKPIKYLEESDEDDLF

An IC50 of about 80 µM was found for `CC(=O)O[C@@H]1[C@@H](C)O[C@@H](c2ccc3c(c2O)[C@@H](O)[C@]24O[C@@]2(C3=O)[C@@]2(O)C(=O)C=C(C)C[C@@]2(O)C[C@@H]4O)C[C@H]1OC(=O)/C=C/C=C/C=C/C=C/C(=O)Nc1c(O)c2ccc(O)c(Cl)c2oc1=O` [SD8, Simocyclinone D8] in this work.
